Consider one molecule from patent US8507550B2, “Treatment for altitudinal hypoxia” (AesRx LLC, priority 2010, dated 2013).

In data set [1] the test system is rats. The note with it: females; cited from earlier work.
For data set [2], the system named is human subject. The data set can be described thus: hypoxia induced by moderate exercise at elevated altitude in a human subject. Format: in vivo. The note with it: 3,000 meters altitude, at rest 3 hours and after one hour bike; dosage giving P50 of 18 mm Hg; day 2 (treated) vs day 1. On the procedure: A 90 kg person in good health is transported from low elevation (<100 meters above sea level) to an altitude of 3,000 meters above sea level and kept at rest there for 3 hours. At that point, the subject is tested for respiration rate, heart rate and extremity O2. The subject is then put on a stationary exercise bike and allowed to ride the bike at a cadence of 40 rpm for one hour. The subject is again tested for respiration rate, heart rate and extremity O2. Then the subject is transported back to low elevation. […] The subject is kept at rest there for 3 hours, then tested for respiration rate, heart rate and extremity O2. The subject is then put on a stationary exercise bike and allowed to ride the bike at a cadence of 40 rpm for one hour. The subject is again tested for respiration rate, heart rate and extremity O2. The data from the two days are then compared.

Data set [3] concerns SCD Hb. The note with it: sickle cell disease mouse model; Abdulmalik 2004; cited from earlier work.
For data set [4], the system named is sickle cell disease mouse model. The note with it: Abdulmalik 2004; cited from earlier work.

Take `O=Cc1ccc(CO)o1` [5-HMF, 5-hydroxymethyl-2-furfural]: the “acute oral LD50” value in data set [1] was 2500 to 5000 mg/kg. The “respiration rate, heart rate and extremity O2” value in data set [2] is on record as “closer to normal on day 2 than on day 1”. For the same molecule, the “P50 of SCD Hb” value in data set [3] is recorded as “lower P50 (left shift)”. In data set [4], the “in vivo protection against the lethal effects of hypoxia” value is recorded as “provides in vivo protection against the lethal effects of hypoxia”.
